These results are taken from paper PMC3700072, “Synthesis, Anti-Inflammatory, and Ulcerogenicity Studies of Novel Substituted and Fused Pyrazolo[3,4-d]pyrimidin-4-ones” (Scientia Pharmaceutica, 2013).

For orientation: melting point means the temperature, or range, at which the solid turns liquid.

Data set [1] relates to carrageenan-induced rat paw edema. In words: carrageenan-induced rat paw edema test. It counts as in vivo. More on the design: Mean increase in edema weight ± SEM: unit not given here. Conditions: rats, 10 mg/kg intraperitoneally, 4 h after carrageenan; for inhibition in vivo at 10 mg/kg / change in vivo at 10 mg/kg: Rattus norvegicus, ip; for inhibition in vivo at 10 mg/kg: 4 h, read-out: %Inhibition of Paw edema from control group (edema reduction); for change in vivo at 10 mg/kg / Mean increase in edema weight ± SEM: N = 6; for change in vivo at 10 mg/kg: read-out: Mean % increase in edema weight ± SEM; for % Activity relative to indomethacine: indomethacin = 100. The protocol: The in vivo anti-inflammatory effects of the newly synthesized pyrazolopyrimidine derivatives were assessed by utilizing the functional model of carrageenan-induced rat paw edema using indomethacin as the reference drug. Mean changes and the percent increase in paw edema weight of animals pretreated with the tested compounds after 4 h from the induction of inflammation were measured, together with the percent inhibition of induced rat paw edema by the tested compounds. The anti-inflammatory activity (relative potency) of the tested compounds relative to that of indomethacin was also calculated (Table 1) (Fig. 2).
The in vivo carrageenan-induced rat paw edema model of inflammation was used to evaluate the anti-inflammatory properties of the newly synthesized compounds according to the previously reported Winter et al. method.
Adult male albino rats weighing 100–120 g (obtained from the animal house of the department of Physiology, Faculty of Medicine, Alexandria University) were used throughout the work. Animals were randomly divided into groups of six rats each. They were kept in an animal house under standard conditions of light and temperature with free access to food and water ad libitum and allowed to be accustomed to their environment for two days before testing.
Indomethacin, used as a reference standard (Khahira for Pharmaceutical and Chemical Industry, Cairo, Egypt), and the test compounds were dissolved in DMSO and were injected intraperitoneally at a dose level of 10 mg/kg body weight. Control animals, on the other hand, were intraperitoneally injected with appropriate volume of DMSO only. After one hour of the above treatment, an inflammatory edema in the right hind paw of all animals was induced by subcutaneous injection of 0.05 ml of freshly prepared solution of 1% carrageenan (λ-Carrageenan Sigma–Aldrich Corp. St. Louis, MO, USA) in sterile normal saline (0.9%), into the subplantar tissue of the paw. An equal volume of saline was injected to the left hind paw and served as internal control for the degree of inflammation in the right hind paw.
Four hours after carrageenan injection, animals were decapitated and both the right and left hind paws were excised at a standard point and weighed. The difference in weight from edema between right and left paws was taken as a measure of the degree of inflammation for each animal. The mean increase in weight of the carrageenan-injected paw over the other paw in each group was measured and the percent increase of edema was calculated. The anti-inflammatory efficacy of the tested compounds was assessed by comparing the change in paw weight in the treated animals with that in control animals (treated with DMSO only) and expressed as a percent inhibition of the edema (percent protection against inflammation), calculated according to the following equation: % Inhibition of edema=(1-Wt/Wc)×100 where Wt is the mean increase in paw weight in rats treated with the test compounds and Wc is the mean increase in paw weight in the control group. The anti-inflammatory activity of the test compounds relative to that of indomethacin was also determined (Table 2).
In the anti-inflammatory study, data obtained were expressed as the mean ± standard error (SEM). Statistical significance was determined by comparing the values of the test compounds and the standard with those obtained from the control group of animals using One-way ANOVA with Dunnett’s post-test using the GraphPad Prism version 3.00 for Windows (GraphPad Software, San Diego California USA, www.graphpad.com). The difference in results was considered significant if P < 0.001.
(In general: The carrageenan paw model is a standard test of acute inflammation.)

Another data set deals with gastric mucosa of rats. Briefly: gastric ulcerogenic effect (Meshali's method, ulcer index by Robert's method). The class given is in vivo, rat. More on the design: key to Ulcer index: ulcer index = %incidence/10 + avg no. of ulcers + avg severity (0–4). The protocol: The ulcer index was calculated according to Robert’s method.
Adult male albino rats weighing between 100 and 120 g were used. Animals were divided into groups of five animals each. Rats were fasted 20 h before drug administration. Water was given ad libitum. The control group received the vehicle (1% gum acacia) orally. Other groups received indomethacin or test compounds orally in a dose of 10 mg/kg body weight suspended in 1% gum acacia. Rats were fasted for 2 h, allowed to feed for 2 h, then fasted for another 20 h. Rats were given another two doses on the second and third days. On the fourth day, rats were sacrificed by diethyl ether; the stomach of each rat was removed, opened along the greater curvature, and rinsed with cold 0.9% saline. The stomach was stretched, by pins, on a corkboard and inspected with a 3x magnifying lens for any evidence of mucosal damage. The ulcer index was calculated according to Robert’s method. The number of mucosal damage (red spots) was counted and their severity (ulcerogenic severity) was graded from 0 to 4 according to the following score assignment:
The following figures were calculated: • –– % Incidence/10 = [number of rats showing ulcer of any grade divided by total number of rats in the group × 100]/10. • –– Average number of ulcers: number of ulcers in the group/total number of rats in the group. • –– Average severity: Σ [each ulcer multiplied by its score of severity]/number of ulcers in the group. • Ulcer index = the sum of the 3 figures. • Results are tabulated in Table 2.

In the case of `Cc1nc2c(cnn2-c2ccccc2)c(=O)n1N=C1SCC(=O)N1c1ccccc1` [Compound 10a, 6-Methyl-5-[(4-oxo-3-phenyl-1,3-thiazolidin-2-ylidene)amino]-1-phenyl-1,5-dihydro-4H-pyrazolo[3,4-d]pyrimidin-4-one], the melting point lay within 264 to 267 °C. In data set [1], the inhibition in vivo at 10 mg/kg was 52.2%, the change in vivo at 10 mg/kg worked out at 9.5 ± 0.326%, the “Mean increase in edema weight ± SEM” value turned out to be 0.75 ± 0.022 and the “% Activity relative to indomethacine” value is recorded as 76.64%.
For `Cc1nc2c(cnn2-c2ccccc2)c(=O)n1N1C(=O)CSC1c1ccccc1` (stereo not drawn) [Compound 8a, 6-Methyl-5-(4-oxo-2-phenyl-1,3-thiazolidin-3-yl)-1-phenyl-1,5-dihydro-4H-pyrazolo[3,4-d]-pyrimidin-4-one] the same measures were 179 to 181 °C, 37.6%, 12.5 ± 0.376%, 0.98 ± 0.017 and 55.14%.
Taken in the same sequence, the figures for `Cc1nc2c(cnn2-c2ccccc2)c(=O)n1N1C(=O)CSC1c1ccc(Cl)cc1` (stereo not drawn) [Compound 8b, 5-[2-(4-Chlorophenyl)-4-oxo-1,3-thiazolidin-3-yl]-6-methyl-1-phenyl-1,5-dihydro-4H-pyrazolo[3,4-d]pyrimidin-4-one] were 191 to 195 °C, 40.8%, 13 ± 0.702%, 0.93 ± 0.042 and 59.81%.
Regarding `Cc1nc2c(cnn2-c2ccccc2)c(=O)n1N` [Compound 5, 5-Amino-6-methyl-1-phenyl-1,5-dihydro-4H-pyrazolo[3,4-d]pyrimidin-4-one], in data set [1], the inhibition in vivo at 10 mg/kg amounted to 33.1%, the change in vivo at 10 mg/kg was 19.8 ± 1.6%, the “Mean increase in edema weight ± SEM” value is recorded as 1.05 ± 0.089 and the “% Activity relative to indomethacine” value is recorded as 48.60%.
With `O=c1c2cnn(-c3ccccc3)c2nc2ccc(-c3ccccc3)nn12` [Compound 16, 1,7-Diphenylpyrazolo[3′,4′:4,5]pyrimido[1,2-b]pyridazin-4(1H)-one], the melting point is 118 to 119 °C. Moreover, in data set [1], the inhibition in vivo at 10 mg/kg turned out to be 28.1%, the change in vivo at 10 mg/kg turned out to be 14.3 ± 0.98%, the “Mean increase in edema weight ± SEM” value is 1.13 ± 0.067 and the “% Activity relative to indomethacine” value is 41.13%.
As to `Cc1nc2c(cnn2-c2ccccc2)c(=O)n1N1C(=O)CC(=O)N(c2ccccc2)C1=S` [Compound 12a, 1-(6-Methyl-4-oxo-1-phenyl-1,4-dihydro-5H-pyrazolo[3,4-d]pyrimidin-5-yl)-3-phenyl-2-thioxodihydropyrimidine-4,6(1H,5H)-dione], in data set [1], the inhibition in vivo at 10 mg/kg was found to be 35%, the change in vivo at 10 mg/kg amounted to 13.6 ± 0.795% and the “Mean increase in edema weight ± SEM” value turned out to be 1.02 ± 0.060.
`O=c1c2cnn(-c3ccccc3)c2nc2cc3c(nn12)CCCC3` [Compound 17, 1-Phenyl-7,8,9,10-tetrahydropyrazolo[3′,4′:4,5]pyrimido[1,2-b]cinnolin-4(1H)-one]: the melting point was in the range of 142 to 145 °C. In data set [1], the inhibition in vivo at 10 mg/kg was 29.9%, the change in vivo at 10 mg/kg is 15.8 ± 0.756%, the “Mean increase in edema weight ± SEM” value is given as 1.10 ± 0.052 and the “% Activity relative to indomethacine” value turned out to be 43.93%.
With `COc1ccc2c(c1)c(CC(=O)O)c(C)n2C(=O)c1ccc(Cl)cc1` [Indomethacin, reference compound], in data set [1], the inhibition in vivo at 10 mg/kg is 68.2%, the change in vivo at 10 mg/kg came to 6.37 ± 0.366%, the “Mean increase in edema weight ± SEM” value was 0.50 ± 0.026 and the “% Activity relative to indomethacine” value is 100.0%. Moreover, in the data set with gastric mucosa of rats (oral 10 mg/kg), the “% ulceration in the population of test animals” value is 100%. Also, the “Average No. of ulcer” value in the data set on gastric mucosa of rats (oral 10 mg/kg on three days) amounted to 4.4. Also, the “% Incidence/10” value in the data set on gastric mucosa of rats (oral 10 mg/kg on three days, 5 animals per group) was found to be 10. For the same compound, in the data set with gastric mucosa of rats (oral 10 mg/kg on three days, indomethacin = 100), the “% Ulcerogenicity relative to indomethacin” value is 100.00%. In addition, the Average severity in the data set with gastric mucosa of rats (oral 10 mg/kg on three days, score 0 to 4) is listed as 2.86. In the data set with gastric mucosa of rats (oral 10 mg/kg on three days, sum of the 3 figures), the Ulcer index amounted to 17.26.
